Reference: patent publication US20220110916A1, “Antioxidant and Use Thereof” (Bioradical Research Institute Corp., priority 2019, published 2022)

Key:
[1] = Water solubility noted at synthesis; format: physicochemical; conditions: crystal obtained in Example 1
Description: 3.58 g of 3-methyl-1-phenyl-5-pyrazolone (hereinafter, also referred to as “edaravone”), 2.59 g of malonaldehyde dianilide hydrochloride, and 20 ml of ethanol were added to a reactor and dissolved. To the obtained solution, 2.04 g of triethylamine and 0.4 ml of water were added and stirred for 1 hour at room temperature (about 25° C., hereinafter, the same applies). After the stirring, the resultant was further reacted for 1 hour at 50° C. After discharging the obtained reaction solution to 100 ml of 1N hydrochloric acid, the mixture was sufficiently stirred and the precipitate was filtered. The resulting cake was washed with water. The cake was added to 200 ml of an aqueous sodium hydroxide solution having a 1% by weight concentration and completely dissolved by heating with stirring. Next, the dissolved solution was stirred for 3 hours after cooling to room temperature. Then, the liquid containing the obtained precipitate was filtered, and then the cake was washed with water. […] Note that the melting point of ED2AP was 249° C., which was water-soluble.
3 ml of dimethylformamide was added to a reactor and the exterior of the reactor was cooled with ice water. 1.75 g of phosphorus oxychloride was slowly dropped into the reactor (Reaction Solution A). In another reactor, 1.78 g of edaravone was dissolved in 5 ml of dimethylformamide (Reaction Solution B). Under room temperature, the reaction solution B was slowly added to the reaction solution A, and the resulting mixture was allowed to react for 1 hour with the end of addition (Reaction Solution C) being a reference. In another reactor, 1.81 g of 3-methyl-1-phenyl-5-pyrazolone was added to 8 ml of chloroform and dissolved (Reaction Solution D). Under room temperature, the reaction solution C was slowly added to the reaction solution D, followed by stirring for 20 minutes and further stirring at 70° C. for 1 hour. To the resultant, 0.2 g of water was added and stirred for another 2 hours. The obtained reaction solution was discharged into 100 ml of water and extracted with a mixed solvent of toluene/ethyl acetate=1/1 (volume ratio). After condensation of the obtained extract, column purification was performed to obtain 2.92 g of yellow crystal of the compound of the formula (10) having the following physical properties.
1.00 g of edaravone, 0.72 g of paraformaldehyde, and 20 ml of formic acid were added to a reaction flask and stirred overnight for 20 hours at 70° C. The obtained reaction solution was discharged into 80 ml of water and extracted with a mixed solvent of toluene/ethyl acetate=1/1 (volume ratio). When the extract was condensed to about two-thirds, crystals were precipitated. Further, the resultant was cooled to room temperature, and sufficiently crystallized, and then filtered. The obtained cake was washed with toluene to obtain 0.88 g of pale yellow crystal of the compound of the formula (14) having the following physical properties.
In Example 1(1), synthesis was performed in the same manner as described above except that 3-methyl-1-ethyl-5-pyrazolone was used instead of edaravone to obtain red crystal of BisEp-C3 having the following physical properties. Note that BisEp-C3 was water-soluble.
In Example 1(2), synthesis was performed in the same manner as described above except that 3-methyl-1-ethyl-5-pyrazolone was used instead of edaravone to obtain yellow crystal of BisEp-C1 having the following physical properties. Note that BisEp-C1 was water-soluble.
In Example 1(3), synthesis was performed in the same manner as described above except that 3-methyl-1-ethyl-5-pyrazolone was used instead of edaravone, then the obtained reaction solution was condensed, and the resultant was subjected to column purification to obtain colorless crystal of BisEp-C1 (H2) having the following physical properties. Note that BisEp-C1 (H2) was water-soluble.

[2] = test system: neutrophils isolated from the peripheral blood of healthy individuals; assay: Superoxide production amount of PMA-stimulated neutrophils, CLA chemiluminescence; format: cell-based, human; conditions: 0-200 μmol/l or 0-5000 μmol/l; PMA 100 ng/ml; control being 100; FIG. 2
Description: For examining the reactive oxygen-eliminating effect of the antioxidant of the present invention, the superoxide produced by the neutrophils when the neutrophils isolated from the peripheral blood of healthy individuals were stimulated with PMA (phorbor-12-myristate-13-acetate) was used. The superoxide production amount was measured by chemiluminescence using CLA (2-methyl-6-pjenyl-3, 7-dihydroimidazo[1,2-a]pyrazine-3-one).
(§1) First, ED2AP, BisEp-C3, edaravone, BisEp-C1, or BisEp-C1 (H2) was added to a neutrophil of 4×10^5 cells per sample so as to achieve a predetermined concentration (0, 12.5, 25, 50, 100, or 200 μmol/l, or 0, 125, 250, 500, 1250, 2500, or 5000 μmol/l) with 5 μmol of CLA, and then the cell suspension was seeded in flat-bottomed 96-well plates. The volume of the suspension was 200 μl/well, and phenol red free Ca+, Mg+ HBSS was used as the solution. In addition, the neutrophil was stimulated by adding PMA so as to achieve a concentration of 100 ng/ml. After the stimulation, a plate reader (Envision 2104 Multilabel Reader, produced by Perkin Elmer Co., Ltd.) was used to measure the chemiluminescence value over time for 30 minutes with the PMA stimulation time being a reference. The measurement interval was 30 seconds. The sum of the chemiluminescence values obtained every 30 seconds for 30 minutes was taken as the superoxide production amount. In addition, as a control, the superoxide production amount was measured in the same manner except that each compound was not added. The relative value of the superoxide production amount when each compound was added was calculated with the superoxide production amount of the control being 100.

[3] = Storage stability in pH7.4-PBS or pure water at 37° C. protected from light, residual rate by HPLC; format: physicochemical; conditions: 200 μmol/l; for Residual rate (%) After 1 week / Residual rate (%) After 2 weeks: 37° C., protected from light; for Residual rate (%) Initial concentration: initial concentration (reference 100%)
Description: The storage stability of edaravone, EMPO, ED2AP, and BisEp-C3 of the following formula (A) were examined. Specifically, edaravone, EMPO, ED2AP, and BisEp-C3 were dissolved in pH7.4-PBS or pure water so as to have a final concentration of 200 μmol/l to prepare dissolved solutions of these compounds. When the compounds were difficult to be dissolved, they were dissolved in an ultrasonic cleaner with warm water at 40° C.
Under the measurement conditions for HPLC described below, the initial concentration was quantified, and then each solution was stored in an oven, which was protected from light, at 37° C., and quantified under the same measurement conditions after 1 week and 2 weeks, to determine residual rate (%) with the initial concentration (100%) being a reference.
Measurement conditions for HPLC
PDA detector (Format: SPD-M20A) HPLC Assay Conditions:
Column: Atlantis dC18 5 μm (250×4.6 mm I.D.; produced by Waters)
Column temperature: 45° C.
Detection method: UV (254 nm)
Eluate A: pH3 buffer solution (adjusted to pH3 by adding phosphoric acid to 0.05M KH2PO4 aqueous solution)/methanol=90/10

[4] = test system: rat neuroid cells B50; assay: Alleviation of singlet oxygen (Rose Bengal + G-LED) cytotoxicity, Alamar Blue fluorescence; format: cell-based; conditions: 200 nmol/l RB + G-LED 5 minutes
Description: Edaravone, ED2AP and BisEp-C3 were examined whether they had the function of alleviating neuronopathy. Specifically, singlet oxygen was generated by combining Rose Bengal (RB), which is a sensitizer, with green light (G-LED), and the function of alleviating the cytotoxicity of the generated singlet oxygen was examined with the cellular activity being an indicator.
First, rat neuroid cells B50 were cultured in 12-well dishes at 2×10^5 cells/well (medium: RPMI-1640 medium containing 5% FCS) overnight. After the culturing, the medium of each well was replaced with HBSS (1000 μl/well; phenol red free Ca+, Mg+) containing 200 nmol/l RB and edaravone, ED2AP, or BisEp-C3 having a predetermined concentration (0, 12.5, 25, 50, or 100 μmol/l). The dish was then irradiated with G-LED for 5 minutes to generate singlet oxygen. Thereafter, the medium of each well was replaced with 1000 μl of HBSS and Alamar Blue was added. The dish was then allowed to react for about 2 hours in an incubator at 37° C. and 5% CO2. After the reaction, fluorescence intensity (excitation wavelength: λ-560 nm, fluorescence wavelength: λ-595 nm) was measured with a plate reader (infinite200, Tecan Trading AG). In this experimental system, the higher the cellular activity, the more Alamar Blue is taken up and the higher the fluorescence intensity. As a control, fluorescence intensity was measured in the same manner except that sodium azide (Azide, NaN3) was added instead of the compounds so as to achieve a concentration of 4 mmol/l. As a negative control (NC), fluorescence intensity was measured in the same manner except that RB was not added. The relative value of the fluorescence intensity in the sample to which each compound was added was calculated with the fluorescence intensity of the negative control being 100.

[5] = test system: neutrophils isolated from the peripheral blood of healthy individuals; assay: Superoxide production amount of PMA-stimulated neutrophils with PBS solutions stored for 10 days vs immediately after preparation; format: cell-based, human; conditions: PBS solution stored for 10 days vs immediately after preparation; 0, 6.25, 12.5, 25, 50, 100 or 20 μmol/l; FIG. 4
Description: as §1
PBS solutions of ED2AP, BisEp-C3, and edaravone were prepared in the same manner as in Example 2 and stored for 10 days. The superoxide production amount was calculated in the same manner as in Example 4 except that the PBS solution after storage was added instead of ED2AP, BisEp-C3, edaravone, BisEp-C1 or BisEp-C1 (H2) so as to achieve a predetermined concentration (0, 6.25, 12.5, 25, 50, 100 or 20 μmol/l) of ED2AP, BisEp-C3 or edaravone. Further, PBS solutions of ED2AP, BisEp-C3, and edaravone were prepared in the same manner as in Example 2, and the superoxide production amount was calculated in the same manner except that the PBS solution immediately after preparation was used. Then, the relative value of the superoxide production amount of each sample was calculated with the superoxide production amount of the sample of 0 μmol/l being 100.

[6] = test system: rat neuroid cells B50; assay: Toxicity evaluation on byproducts after reaction with singlet oxygen, cell viability; format: cell-based; conditions: 50, 100, or 200 μmol/l reacted with RB + G-LED 525 nm in cell-free system; FIG. 6
Description: In a cell-free system, the RB was added to media (50% FCS-containing RPMI-1640 media) containing edaravone, ED2AP, and BisEp-C3 having a predetermined concentration (50, 100, or 200 μmol/l) and then irradiated with LED (G-LED) at 525 nm to generate singlet oxygen, whereby reacting each compound with singlet oxygen. The cell viability was measured in the same manner as in Example 7(1), except that the culture solution after the reaction was used as a medium of the neuroid cell B50. As a negative control (NC), the cell viability was measured in the same manner except that each compound and […] were not added in the cell-free system. Further, as a control (RB), the cell viability was measured in the same manner except that each compound was not added and only […] was added in the cell-free system.

[7] = test system: rat neuroid cells B50; assay: Toxicity evaluation, cell viability by Alamar Blue after 24 hours; format: cell-based; conditions: 12.5, 25, 50, 100, or 200 μmol/l, FIG. 5
Description: Rat neuroid cells B50 were seeded in 12-well plates and then cultured. Edaravone (RC), ED2AP, or BisEp-C3 was added to each well so as to achieve a predetermined concentration (12.5, 25, 50, 100, or 200 μmol/l), and then incubated for 24 hours at 37° C. and 5% CO2. Cell viability in each well after the culture was measured using Alamar Blue.

For `CCn1nc(C)c(Cc2c(C)nn(CC)c2O)c1O` [BisEp-C1 (H2), 4,4′-methylenebis[1-ethyl-3-methyl-1H-pyrazol-5-ol]], the solubility in water [1] was “water-soluble” and the “relative value of the superoxide production amount” value [2] was “suppressed the superoxide production amount in a concentration-dependent manner”.
With `CCN1N=C(C)/C(=C/c2c(C)nn(CC)c2O)C1=O` [BisEp-C1] the solubility in water [1] was “water-soluble” and the “relative value of the superoxide production amount” value [2] was “suppressed the superoxide production amount in a concentration-dependent manner”.
In the case of `CCN1N=C(C)CC1=O` [EMPO, reference compound], the “Residual rate (%) After 1 week” value ([3]; Pure water) is reported as 6.3%, the “Residual rate (%) After 2 weeks” value ([3]; Pure water) is reported as 1.4% and the “Residual rate (%) Initial concentration” value ([3]; Pure water) is reported as 100%. For the same compound, the “Residual rate (%) After 1 week” value ([3]; pH 7.4-PBS) was 0.0%, the “Residual rate (%) After 2 weeks” value ([3]; pH 7.4-PBS) was 0.0% and the “Residual rate (%) Initial concentration” value ([3]; pH 7.4-PBS) was 100%.
With `CC1=NN(c2ccccc2)C(=O)C1` [Edaravone, 5-methyl-2-phenyl-2,4-dihydro-3H-pyrazol-3-one, reference compound] the “recovery of the fluorescence intensity (cellular activity)” value ([4]; 0, 12.5, 25, 50, or 100 μmol/l, FIG. 3) was “not recovered”, the “superoxide-eliminating ability after storage” value [5] was “remarkably lowered after storage for 10 days” and the “Residual rate (%) After 1 week” value ([3]; Pure water) was 82.8%. The “Residual rate (%) After 2 weeks” value ([3]; Pure water) was 80.4%, the “Residual rate (%) Initial concentration” value ([3]; Pure water) was 100% and the “Residual rate (%) After 1 week” value ([3]; pH 7.4-PBS) was 31.2%. For the same compound, the “Residual rate (%) After 2 weeks” value ([3]; pH 7.4-PBS) was 0.2%, the “Residual rate (%) Initial concentration” value ([3]; pH 7.4-PBS) was 100% and the “cytotoxicity of the byproducts after reaction with singlet oxygen (cell viability)” value [6] was “not cytotoxic at any concentration”. For the same compound, the “relative value of the superoxide production amount” value [2] was “suppressed the superoxide production amount in a concentration-dependent manner” and the “cytotoxicity (cell viability)” value [7] was “not cytotoxic at any concentration”.
In the case of `CC1=NN(c2ccccc2)C(=O)/C1=C\c1c(C)nn(-c2ccccc2)c1O` [formula (10), 2,4-dihydro-4-[(5-hydroxy-3-methyl-1-phenyl-1H-pyrazol-4-yl)methylene]-5-methyl-2-phenyl-3H-pyrazol-3-one], the solubility in water [1] is reported as “poorly soluble in water”.
For `Cc1nn(-c2ccccc2)c(O)c1Cc1c(C)nn(-c2ccccc2)c1O` [formula (14), 4,4′-methylenebis[3-methyl-1-phenyl-1H-pyrazol-5-ol]], the solubility in water [1] was “poorly soluble in water”.
In the case of `[N-]=[N+]=[N-]` [sodium azide, reference compound], the “relative value of the fluorescence intensity” value ([4]; 4 mmol/l, negative control being 100, RB control 33.17) is reported as 80.81.
